Series [1] is described as follows: Polymorph screening by mixing shaking. The class given is physicochemical. The settings on record: mixed crystal forms I to III shaken 1 day at room temperature in different solvents. The procedure: Mixing shaking test was conducted using different solvent systems. 2 mg of each crystal form of crystal form I to crystal form III was weighed into a glass vial to obtain the mixed crystals, the appropriate amount of organic reagents in Table 6 were added, screwed the cap, and a sealing film was used to prevent the solvent from volatilizing, shaken for 1 days at room temperature and 25 r/min, taken out and centrifuged at 10000 r/min for 10 min at 4° C., the supernatant was poured, and the solid was placed in a oven at 50° C. for drying, the resulting solid was collected and sent for XRPD test.

The test system of series [2] is SU-DHL-10. The series can be described thus: Cell proliferation assay, SU-DHL-10. The class given is cell-based. On the procedure: (§1) Cell lines Pfeiffer (CRL-2632), suDHL-6 (CRL-2959) and suDHL-10 (CRL-2963) were obtained from ATCC. All cell lines were cultured in RPMI-1640 medium (Gibco) plus 10% FBS (Gibco). Cells are harvested by centrifuge and densities are determined using a CounterStar cell counter. Appropriate number of cells are plated in a96-well culture plate and pre-incubate overnight. Tested compounds are 1:3 diluted for 8-points and added into each well. After 6 days' growth, cell counting kit-8 (Dojindo) is used to detect cell viability and read on Tecan infinite pro. IC50s are counted by XLfit using a four-parameter model.

Series [3] can be described thus: Dynamic solubility experiment. In kind it is physicochemical. The settings on record: for solubility at 24 h: thermodynamic from solid, room temperature. The source says:
The free base samples and the two crystal forms were plotted separately in the experiment.

For series [4], the target named is T1, PRC2 (EZH2-Y641F) (Homo sapiens, UniProt Q15910, Y641F).
T1 construct: purchased Active motif
The series can be described thus: In vitro methyltransferase assay. The class given is biochemical. The procedure:
Recombinant PRC2 (EZH2-Y641F) was purchased from Active motif, S-adenosyl-methionin chloride (SAM) and Poly-L-lysine (PLL) were purchased from Sigma-Aldrich, H3(1-50)K27me1 peptide was purchased from Cisbio. LANCEUltra (Perkinelmer) system was used for detection. For the enzyme activity test, tested compounds are 1:3 diluted for 8-points, and added into each well, then 100 ng enzyme is added. And then the buffer [20 mM Tris pH8.5, 2 mM MgCl2, 0.01% Tween-20, 1 mM TCEP] containing […]/250 nM H3 (1-50)K27me1 premixtures are added. After 3 hours enzyme reaction at RT, the premixed detection buffer (PLL, Europium antibody and Ulight) is added, and react for 1 h at RT, then read fluorescence on Tecan infinite pro. IC50s are counted by XLfit using a four-parameter model.

The test system of series [5] is SU-DHL-6. The series can be described thus: Cell proliferation assay, SU-DHL-6. In kind it is cell-based. The procedure:
as §1

Series [6] relates to Pfeiffer cells. In words: Cell proliferation assay, Pfeiffer. In kind it is cell-based. On the procedure: as §1

As a reminder, the solubility is the concentration that dissolves in the medium under given conditions. Lower therefore signals a poorly soluble substance. In general, IC50 refers to the midpoint of a concentration-inhibition curve.

Each structure is given as a SMILES string. ≈ marks a conversion by molar mass, not a printed value. Where two headings read alike, the source gives them in different places. Bounds are passed on as bounds.

T1 sequence (Q15910 whole entry Y641F): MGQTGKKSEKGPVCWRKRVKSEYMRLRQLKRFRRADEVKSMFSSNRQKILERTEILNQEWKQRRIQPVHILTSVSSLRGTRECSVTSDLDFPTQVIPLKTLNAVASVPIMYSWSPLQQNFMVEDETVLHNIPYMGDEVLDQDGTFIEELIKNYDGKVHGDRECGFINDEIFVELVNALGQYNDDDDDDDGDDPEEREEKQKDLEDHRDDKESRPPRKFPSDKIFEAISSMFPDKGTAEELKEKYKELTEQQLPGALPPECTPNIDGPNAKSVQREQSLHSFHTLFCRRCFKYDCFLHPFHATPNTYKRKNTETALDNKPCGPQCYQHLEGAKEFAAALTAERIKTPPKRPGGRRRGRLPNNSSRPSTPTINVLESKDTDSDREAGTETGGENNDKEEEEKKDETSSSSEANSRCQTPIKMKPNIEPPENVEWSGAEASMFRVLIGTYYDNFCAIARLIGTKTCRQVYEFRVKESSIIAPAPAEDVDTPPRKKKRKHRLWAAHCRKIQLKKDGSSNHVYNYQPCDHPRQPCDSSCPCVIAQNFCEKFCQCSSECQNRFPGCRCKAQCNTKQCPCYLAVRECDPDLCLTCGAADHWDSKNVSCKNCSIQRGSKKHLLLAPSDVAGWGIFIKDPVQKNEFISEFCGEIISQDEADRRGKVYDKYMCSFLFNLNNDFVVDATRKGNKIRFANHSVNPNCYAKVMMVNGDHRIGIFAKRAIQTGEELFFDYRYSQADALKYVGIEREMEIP
T1 sequence (O75530 whole entry partner): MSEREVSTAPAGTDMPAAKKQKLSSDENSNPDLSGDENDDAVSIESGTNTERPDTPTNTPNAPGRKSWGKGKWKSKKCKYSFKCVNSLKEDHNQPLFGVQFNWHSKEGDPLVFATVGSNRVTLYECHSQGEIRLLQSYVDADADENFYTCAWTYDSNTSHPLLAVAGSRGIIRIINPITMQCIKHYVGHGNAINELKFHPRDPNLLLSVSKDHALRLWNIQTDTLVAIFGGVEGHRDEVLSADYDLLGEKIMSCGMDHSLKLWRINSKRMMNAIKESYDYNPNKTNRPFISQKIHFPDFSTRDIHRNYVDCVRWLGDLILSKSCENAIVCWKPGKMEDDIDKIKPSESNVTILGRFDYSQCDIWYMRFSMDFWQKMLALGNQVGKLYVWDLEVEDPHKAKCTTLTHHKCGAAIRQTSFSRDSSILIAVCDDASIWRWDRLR
T1 sequence (Q15022 whole entry partner): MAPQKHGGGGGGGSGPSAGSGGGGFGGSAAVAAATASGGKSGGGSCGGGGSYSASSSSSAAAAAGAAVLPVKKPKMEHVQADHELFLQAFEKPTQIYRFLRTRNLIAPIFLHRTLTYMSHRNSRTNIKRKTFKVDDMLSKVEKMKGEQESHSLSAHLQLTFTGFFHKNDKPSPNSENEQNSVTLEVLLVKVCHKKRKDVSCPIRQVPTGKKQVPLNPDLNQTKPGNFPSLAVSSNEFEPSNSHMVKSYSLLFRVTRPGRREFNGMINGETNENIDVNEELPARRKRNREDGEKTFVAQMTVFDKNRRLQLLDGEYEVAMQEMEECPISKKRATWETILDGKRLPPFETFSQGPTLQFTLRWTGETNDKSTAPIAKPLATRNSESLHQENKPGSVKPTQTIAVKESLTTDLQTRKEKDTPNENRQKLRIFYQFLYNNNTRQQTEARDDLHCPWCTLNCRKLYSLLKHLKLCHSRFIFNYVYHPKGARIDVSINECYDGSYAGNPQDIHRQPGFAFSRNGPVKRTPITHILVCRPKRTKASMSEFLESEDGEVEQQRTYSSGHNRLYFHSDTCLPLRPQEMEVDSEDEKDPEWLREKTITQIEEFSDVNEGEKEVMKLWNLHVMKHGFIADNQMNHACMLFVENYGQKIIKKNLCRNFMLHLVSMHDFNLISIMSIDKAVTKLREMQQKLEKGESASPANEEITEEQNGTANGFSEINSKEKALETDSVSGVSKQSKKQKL
T1 sequence (Q09028 whole entry partner): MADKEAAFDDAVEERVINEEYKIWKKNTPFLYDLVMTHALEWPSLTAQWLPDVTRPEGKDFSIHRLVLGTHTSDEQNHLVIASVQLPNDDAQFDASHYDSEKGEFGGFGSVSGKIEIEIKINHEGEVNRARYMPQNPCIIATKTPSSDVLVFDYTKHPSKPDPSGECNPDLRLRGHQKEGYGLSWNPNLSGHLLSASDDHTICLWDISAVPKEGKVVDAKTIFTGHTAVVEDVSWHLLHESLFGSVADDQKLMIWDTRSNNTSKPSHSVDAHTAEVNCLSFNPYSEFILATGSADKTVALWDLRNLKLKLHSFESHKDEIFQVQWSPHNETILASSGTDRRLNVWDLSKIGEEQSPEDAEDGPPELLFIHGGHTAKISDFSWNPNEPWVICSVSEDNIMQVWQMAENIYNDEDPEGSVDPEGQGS
T1 sequence (Q6ZN18 whole entry partner): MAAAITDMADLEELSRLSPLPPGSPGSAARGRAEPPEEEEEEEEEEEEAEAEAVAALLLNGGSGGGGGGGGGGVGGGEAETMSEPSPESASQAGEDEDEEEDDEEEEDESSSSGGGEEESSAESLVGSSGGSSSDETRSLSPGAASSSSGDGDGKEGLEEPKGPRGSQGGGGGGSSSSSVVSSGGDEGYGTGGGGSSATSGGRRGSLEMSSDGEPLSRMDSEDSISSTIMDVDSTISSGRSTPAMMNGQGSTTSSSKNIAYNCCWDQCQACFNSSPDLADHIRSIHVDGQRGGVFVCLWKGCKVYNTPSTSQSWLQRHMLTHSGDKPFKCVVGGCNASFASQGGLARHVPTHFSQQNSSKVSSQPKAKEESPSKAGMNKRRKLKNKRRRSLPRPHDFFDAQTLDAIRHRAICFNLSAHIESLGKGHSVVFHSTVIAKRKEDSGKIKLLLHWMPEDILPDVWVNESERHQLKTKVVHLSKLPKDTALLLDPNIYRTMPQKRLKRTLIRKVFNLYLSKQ

On to `CCc1c(C(=O)NCc2c(C)cc(C)[nH]c2=O)cc2c(cnn2C)c1N(CC)[C@H]1CC[C@H](N2CC(OC)C2)CC1` [Crystal form V], for which the “stability of crystal form” value in series [1] is “stable crystal form”.
`CCc1c(C(=O)NCc2c(C)cc(C)[nH]c2=O)cc2c(cnn2C)c1N(CC)[C@H]1CC[C@H](N2CC(OC)C2)CC1` [Free base, N-((4,6-dimethyl-2-oxo-1,2-dihydropyridin-3-yl)methyl)-5-ethyl-4-(ethyl((1S,4S)-4-(3-methoxyazetidin-1-yl)cyclohexyl)amino)-1-methyl-1H-indazole-6-carboxamide]: the “inhibitory activity against SU-DHL-10 cells” value in series [2] is on record as “high inhibitory activities”. In addition, the “Final pH” value in series [3] (0.1M HCl) worked out at 4.56; in series [3] (H2O), 8.32; in series [3] (pH 4.5 buffer), 5.84; in series [3] (pH 6.8 buffer), 6.74. The Phenomenon entry in series [3] (0.1M HCl) was “clear”; in series [3] (H2O) it was “turbid”; in series [3] (pH 4.5 buffer) it was “turbid”; in series [3] (pH 6.8 buffer), “turbid”. Moreover, the solubility at 24 h in series [3] (aqueous buffer, pH 4.5 buffer) is 3590 µg/mL (≈ 6540 µM); in series [3] (aqueous buffer, pH 6.8 buffer), 840 µg/mL (≈ 1530 µM); in series [3] (simulated gastric fluid, 0.1M HCl), more than 50000 µg/mL; in series [3] (water, H2O), 60 µg/mL (≈ 109 µM). Also, the IC50 in series [4] came out at 12 nM; in series [6] (Homo sapiens, Pfeiffer, 144 h, 6 days' growth, cell counting kit-8), 7 nM. Besides, the “inhibitory activity against EZH2 Y641F enzyme” value in series [4] is on record as “high inhibitory activity”; in series [4] (listed as compound of formula X), “high inhibitory activities”. In addition, the “inhibitory activity against SU-DHL-6 cells” value in series [5] is recorded as “high inhibitory activities”. For the same compound, in series [6] (Table 10), the “inhibitory activity against cells” value is given as “high inhibitory activity”.

(Values after patent US20210188813A1, “EZH2 INHIBITOR AND PHARMACEUTICALLY ACCEPTABLE SALTS AND POLYMORPHIC SUBSTANCES THEREOF, AND APPLICATION OF EZH2 INHIBITOR” (SHANGHAI HAIYAN PHARMACEUTICAL TECHNOLOGY CO., LTD., priority 2018, published 2021).)
